Entries after “also recorded” stand apart in the source; their conditions may differ. Like-named read-outs stand apart in the source and are kept apart here.
Key:
[1] = design: method as in Baselga et al, 2010; conditions: ref Baselga et al, 2010; cited from earlier work
[2] = design: method as in Reddy et al, 2015; conditions: colorectal cancer patients; ref Reddy et al, 2015; cited from earlier work
breast cancer cell = system: breast cancer cell; design: method as in Srinivasan and Plattner, 2006; conditions: ref Srinivasan and Plattner, 2006; cited from earlier work
[3] = system: C-terminal Src tyrosine kinase (CSK); conditions: cited from earlier work
[4] = Phase Ia dose escalation: safety and tolerability (NCI CTCAE v4.02, DLT, MTD)
Experimental: (§1) Treatment cycles consisted of 28 days of continuous AZD0424 administration, and treatment was to be continued until disease progression, patient withdrawal or unacceptable toxicity.
(§2) All patients receiving at least one dose of AZD0424 were evaluable for safety and efficacy analyses. Safety and tolerability of AZD0424 were assessed according to NCI CTCAE version 4.02.

[5] = system: human Calu-6 lung tumour xenografts; conditions: rats, pre-clinical; cited from earlier work
Src [6] = assay: Urinary NTX and serum CTX levels as markers of Src inhibition; type: in vivo, human
Experimental: Src inhibition is known to reduce bone resorption, resulting in a decrease in urinary N-terminal cross-linking telopeptides of type I collagen (NTX) and serum C-terminal cross-linking telopeptides of type I collagen (CTX) ([Hannon et al, 2012]). Measurements of urinary NTX and serum CTX levels were performed before the first administration of AZD0424 and then weekly, at the same time of day, for up to 6 weeks following first administration as markers of Src inhibition. Samples were analysed at the Mellanby Centre for Bone Research in Sheffield using the Cobas e411 automated immunoassay (Roche Diagnostics, Mannheim, Germany) for serum CTX (ng ml^−1), and the Ortho Clinical Diagnostics (High Wycombe, UK) automated immunoassay for urine NTX. Urinary NTX measurements were reported as a ratio to urinary creatinine (nmol bone collagen equivalent (BCE)/mmol creatinine). Tumour biopsies for measurement of tumour biomarkers (p-Src, Ki67, p-PAX, and p-FAK) by immunohistochemical staining were optional.

[7] = system: c-Src 3T mouse xenografts; conditions: immunocompromised rats, subcutaneous, pre-clinical; cited from earlier work
[8] = system: human umbilical vein endothelial cell cultures; conditions: in vitro, growth factor stimulated, pre-clinical; cited from earlier work
Yes = system: Yes; design: method as in Cancer Research UK Centre for Drug Development, 2015; conditions: ref Cancer Research UK Centre for Drug Development, 2015; cited from earlier work
[9] = rat, pre-clinical; cited from earlier work
[10] = Plasma pharmacokinetics in patients;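 also: patient plasma drug levels measured by validated HPLC with mass spectrometric detection after a 3 h fast, PK parameters from non-compartmental analysis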
Experimental: (§3) Patients were fasted for 3 h prior to administration of AZD0424. Blood samples for analysis of plasma levels of AZD0424 were taken at the following time points: Cycle 1: Pre-dose and at 0.5, 1, 2, 4, 6 and 10 h post-dose on Day 1, then at 24 and 48 h and pre-dose on Days 8, 15 and 22; Cycle 2 (Day 29): Pre-dose and at 0.5, 1, 2, 4, 6, 10, 24 and 48 h. For patients receiving twice-daily AZD0424, the timing of samples was in relation to the morning dose of the drug. Plasma was isolated from centrifuged blood samples and stored at −80 °C prior to quantification of AZD0424 by a validated high performance liquid chromatography method with mass spectrometric detection. Plasma concentration/time data were analysed using non-compartmental methods.

clinical = conditions: human, plasma, oral
Experimental: as §3

[11] = human, in vivo
Experimental: as §1, §2

human tumour cells = conditions: in vitro, pre-clinical; cited from earlier work
VEGFR-2 = conditions: ref Cancer Research UK Centre for Drug Development, 2015; cited from earlier work
[12] = system: non-engineered human tumour cell lines; conditions: in vitro, diverse panel, pre-clinical; cited from earlier work
paxillin = conditions: in vitro, pre-clinical; cited from earlier work
ABL1 = system: ABL1; design: method as in Cancer Research UK Centre for Drug Development, 2015; conditions: ref Cancer Research UK Centre for Drug Development, 2015; cited from earlier work
Lck = system: Lck; design: method as in Cancer Research UK Centre for Drug Development, 2015; conditions: ref Cancer Research UK Centre for Drug Development, 2015; cited from earlier work
advanced solid tumours = assay: Disease response by RECIST 1.1; type: in vivo, human
Experimental: All patients receiving at least one dose of AZD0424 were evaluable for safety and efficacy analyses. Safety and tolerability of AZD0424 were assessed according to NCI CTCAE version 4.02. Patients who were withdrawn from treatment, or received less than 75% of the planned doses of AZD0424 during the first cycle, for reasons other than toxicity were not evaluable for dose review decisions and could be replaced. Disease response was assessed according to RECIST 1.1. For stable disease (SD), follow-up measurements had to meet the SD criteria at least once at least 6 weeks after the first dose of AZD0424.

Src [13] = system: Src; design: method as in Cancer Research UK Centre for Drug Development, 2015; conditions: ref Cancer Research UK Centre for Drug Development, 2015; cited from earlier work
[14] = dog, pre-clinical; cited from earlier work
[15] = system: mouse fibroblasts engineered to over-express activated Src kinase (c-SRC 3T3); conditions: in vitro, pre-clinical; cited from earlier work
[16] = type: in vivo

CN1CCN(CCOc2cc(OC3CCOCC3)c3c(Nc4c(Cl)ccc5c4OCO5)ncnc3c2)CC1 [saracatinib]
recommended phase II dose (RP2D) [1]: 175 mg | rate of Grade 3 hypophosphataemia [2]: 50%

Cc1ccc(NC(=O)c2ccc(CN3CCN(C)CC3)cc2)cc1Nc1nccc(-c2cccnc2)n1 [imatinib]
inhibition of cell motility (breast cancer cell): markedly inhibits cell motility

COc1cc(Nc2c(C#N)cnc3cc(OCCCN4CCN(C)CC4)c(OC)cc23)c(Cl)cc1Cl [bosutinib, reference compound]
selectivity for SFKs over CSK ([3]; ref Davis et al, 2011): ~30 fold

CC(=O)N1CCN(CCOc2cc(OC(C)C)c3c(Nc4c(Cl)cnc5c4OCO5)ncnc3c2)CC1 [AZD0424, 7-[2-(4-Acetylpiperazin-1-yl)ethoxy]-N-(6-chloro[1,3]dioxolo[4,5-b]pyridin-7-yl)-5-isopropoxyquinazolin-4-amine]
deaths due to pneumonia considered possibly related to AZD0424 ([4]; all cohorts): One | patients who died within 4 weeks of the last administration ([4]; all cohorts): Four | maximum tolerated dose (MTD) ([4]; o.d., continuous oral dosing, 28-day cycles): 120 mg | anti-tumour growth effect [5]: moderate anti-tumour growth effects | change in CTX or NTX level (Src [6]; 5 mg, single patient): No significant post-administration changes | dose giving clear evidence of Src target inhibition / inhibition of bone turnover (Src [6]; CTX and NTX): ≥ 20 mg per day | change in CTX and NTX (Src [6]; all cohorts other than 5 mg, by week 2, maintained to 7 weeks): a fall relative to baseline values in both CTX and NTX | percentage reductions in CTX and NTX compared with 50 mg per day of saracatinib (Src [6]; doses of more than 10 mg per day, saracatinib data ref Hannon et al, 2012): Greater percentage reductions | selectivity for Src-Abl1 kinases vs CSK ([3]; ref Cancer Research UK Centre for Drug Development, 2015): > 448 fold | inhibition of tumour growth [7]: profound, dose-dependent inhibition of tumour growth | inhibition of proliferation [8]: inhibited proliferation | activity against Yes (Yes): additional activity | dose limiting toxicity [9]: gastrointestinal toxicity being dose limiting | hypotension and reflex tachycardia [9]: Hypotension and reflex tachycardia were also observed | Cmax and AUC(0-24 h) compared with saracatinib ([10]; comparable doses, saracatinib data ref Baselga et al, 2010): much higher for AZD0424 than saracatinib | dose dependence of Cmax and AUC ([10]; o.d. dosing 5-150 mg): increased linearly with dose; also recorded: Linear, dose-dependent increases; also recorded: dose-dependent, linear increases | absorption and bioavailability ([10]; oral): rapid absorption and high bioavailability | Tmax (clinical): < 2 h | half-life (clinical): 8.4 ± 2.8 h | AUC(0-t) (clinical; 5 mg): 0.624 µM·h | Cmax (clinical; 5 mg): 68.3 nM | half-life (clinical; 5 mg): 6.7 h | AUC(0-t) (clinical; 10 mg): 1.57 µM·h | Cmax (clinical; 10 mg): 210 nM | half-life (clinical; 10 mg): 6.3 h | Cmax (clinical; 20 mg): 590 ± 300 nM | half-life (clinical; 20 mg): 6.8 ± 2.6 h | AUC(0-t) (clinical; 40 mg): 6.81 ± 3.46 µM·h | Cmax (clinical; 40 mg): 715 ± 380 nM | half-life (clinical; 40 mg): 10.5 ± 0.8 h | AUC(0-t) (clinical; 60 mg): 9.88 ± 1.77 µM·h | Cmax (clinical; 60 mg): 1380 ± 215 nM | half-life (clinical; 60 mg): 8.2 ± 3.3 h | AUC(0-t) (clinical; 80 mg): 14.1 ± 5.12 µM·h | Cmax (clinical; 80 mg): 1670 ± 602 nM | half-life (clinical; 80 mg): 9.4 ± 5 h | AUC(0-t) (clinical; 120 mg): 24.9 ± 12 µM·h | Cmax (clinical; 120 mg): 2650 ± 923 nM | half-life (clinical; 120 mg): 7.8 ± 3.1 h | AUC(0-t) (clinical; 150 mg): 25.6 ± 4.15 µM·h | Cmax (clinical; 150 mg): 4110 ± 1540 nM | half-life (clinical; 150 mg): 7.8 ± 2.1 h | Alopecia, treatment-related AE, All grades patients [11]: 17 (41) n (%) | Alopecia, treatment-related AE, Grade 3–5 patients [11]: 0 n (%) | Anaemia, treatment-related AE, All grades patients [11]: 7 (17) n (%) | Anaemia, treatment-related AE, Grade 3–5 patients [11]: 3 (7) n (%) | Anorexia, treatment-related AE, All grades patients [11]: 19 (46) n (%) | Anorexia, treatment-related AE, Grade 3–5 patients [11]: 1 (2) n (%) | Aspartate aminotransferase increased, treatment-related AE, All grades patients [11]: 5 (12) n (%) | Aspartate aminotransferase increased, treatment-related AE, Grade 3–5 patients [11]: 0 n (%) | Cmin at which Grade 2 or 3 hypophosphataemia appeared more frequent [11]: ≥ 200 nM | Constipation, treatment-related AE, All grades patients [11]: 6 (15) n (%) | Constipation, treatment-related AE, Grade 3–5 patients [11]: 1 (2) n (%) | Diarrhoea, treatment-related AE, All grades patients [11]: 12 (29) n (%) | Diarrhoea, treatment-related AE, Grade 3–5 patients [11]: 2 (5) n (%) | Dysgeusia, treatment-related AE, All grades patients [11]: 14 (34) n (%) | Dysgeusia, treatment-related AE, Grade 3–5 patients [11]: 0 n (%) | Fatigue, treatment-related AE, All grades patients [11]: 21(51) n (%) | Fatigue, treatment-related AE, Grade 3–5 patients [11]: 5 (12) n (%) | Headache, treatment-related AE, All grades patients [11]: 5 (12) n (%) | Headache, treatment-related AE, Grade 3–5 patients [11]: 0 n (%) | Hypophosphataemia, treatment-related AE, All grades patients [11]: 16 (39) n (%) | Hypophosphataemia, treatment-related AE, Grade 3–5 patients [11]: 8 (20) n (%) | Lymphocyte count decreased, treatment-related AE, All grades patients [11]: 10 (24) n (%) | Lymphocyte count decreased, treatment-related AE, Grade 3–5 patients [11]: 5 (12) n (%) | Maculopapular rash, treatment-related AE, All grades patients [11]: 9 (22) n (%) | Maculopapular rash, treatment-related AE, Grade 3–5 patients [11]: 2 (5) n (%) | Nausea, treatment-related AE, All grades patients [11]: 27 (66) n (%) | Nausea, treatment-related AE, Grade 3–5 patients [11]: 2 (5) n (%) | Pruritis, treatment-related AE, All grades patients [11]: 7 (17) n (%) | Pruritis, treatment-related AE, Grade 3–5 patients [11]: 0 n (%) | Vomiting, treatment-related AE, All grades patients [11]: 13 (32) n (%) | Vomiting, treatment-related AE, Grade 3–5 patients [11]: 1 (2) n (%) | dose above which treatment-related AE episodes and Grade 3-5 AEs increased markedly [11]: above 60 mg per day | nausea, fatigue, anorexia and alopecia, each: patients with treatment-related AE [11]: > 40% | patients with AE of Grade 3 hypophosphataemia related to the drug [11]: 19.5% | patients with at least one AE possibly, probably or highly probably related to AZD0424 [11]: 92.7% | patients with at least one AZD0424-related event Grade 3-5 in severity [11]: 41.5% | patients with decline in lymphocyte count [11]: 68.3% | patients with dose delays and/or alterations during the study [11]: 63.4% | protocol-defined RP2D [11]: 80 mg | inhibition of migration (human tumour cells): potent inhibition of migration | selectivity for Src-Abl1 kinases vs VEGFR-2 (VEGFR-2): > 933 fold | inhibition of proliferation [12]: generally poor | inhibition of phosphorylation of paxillin (paxillin): evidence of inhibition of phosphorylation | IC50 (ABL1): ~4 nM | activity against Lck (Lck): additional activity | rate of PD (advanced solid tumours; 22/41): 53.7% | patients with SD lasting >12 weeks (advanced solid tumours; all cohorts): five | patients with best response of PD (advanced solid tumours; all cohorts): Twenty-two | patients with best response of stable disease lasting at least 6 weeks (advanced solid tumours; all cohorts, 7 of 41 patients): 17.1% | complete response or partial response (advanced solid tumours; all cohorts, N=41): No responses were observed; also recorded: No patients | IC50 (Src [13]): ~4 nM | dose limiting toxicity [14]: gastrointestinal toxicity being dose limiting | hypotension and reflex tachycardia [14]: Hypotension and reflex tachycardia were also observed | inhibition of proliferation [15]: potent inhibition of proliferation | one tenth of the maximum tolerated dose in rat scaled to man [16]: 17 mg
